# According to patent publication US8563754B2, “Compounds, compositions and methods for preventing skin darkening” (priority 2010, dated 2013):
# Where two headings read alike, the source gives them in different places.
# System: cultured murine melanocytes (melan-a)
# Experiment: Melanin assay in cultured murine melanocytes (melan-a)
# Assay type: cell-based
# Conditions: for activity at 1 µM / activity at 5 µM: Mus musculus; for activity at 1 µM: read-out: % of control melanin remaining after treatment @ 1 μM; for activity at 5 µM: read-out: % of control melanin remaining after treatment @ 5 μM; for ability to block melanin accumulation: cells treated with 1 and 5 uM test compound versus carrier (DMSO) only
# Experimental: The Spectrum Collection library consisting of 2000 drug compounds or natural products represents a source for the identification of compounds useful in the present invention. The library may be screened to identify novel pigmentation inhibitors in cultured murine melanocytes (melan-a). Compounds are dissolved in dimethylsulfoxide (DMSO) to a final concentration of 10 mM. Screening is performed with cultured melanocytes in 24-well plates followed by melanin assay (see below). A minimum change of 50% in melanin formation is established as significant for a pigmentation inhibitor. DMSO may be used as a negative control and the widely used depigmenting agent, hydroquinone, may be used as a positive control on every plate. Primary screening is performed at a final concentration of 1 μM and potential candidates from the primary screening are reconfirmed in duplicate at final concentrations of 1 and 5 μM.
# Melan-a cells are plated at 5×10^4 cells per well in 1 ml of culture media in 24-well plates the day before adding the library compounds. All compounds are added at the indicated final concentrations. Cells are harvested after 72 hours of incubation, and the melanin assay is performed.
# For the primary and secondary screening, cells were harvested and dissolved in 200 μl of 2N NaOH in 20% DMSO at 70° C. A 180-μl aliquot of the resulting solution was measured for absorbance at 490 nm.
# A series of structurally related compounds was then tested in this screen, to identify compounds that inhibit skin darkening.
# [1] = 1 μM test compound, melan-a cells, 72 hours incubation, control = DMSO carrier, absorbance at 490 nm
# [2] = 5 μM test compound, melan-a cells, 72 hours incubation, control = DMSO carrier, absorbance at 490 nm
Compound,activity at 1 µM [1],activity at 5 µM [2],also measured
"C/C=C(\C)C(=O)O[C@@H]1c2c(ccc3ccc(=O)oc23)OC(C)(C)[C@@H]1OC(C)=O [Compound 29, PTERYXIN]",93%,101%,–
"COc1c(O)cc2c(-c3ccccc3)cc(=O)oc2c1OC [Compound 11, KUHLMANNIN]",81%,84%,–
"CC(C)=CCOc1cc2oc(=O)ccc2cc1O [Compound 1, PRENYLETIN]",79%,80%,–
"Cc1cc2cc3c(C)cc(=O)oc3c(C)c2o1 [Compound 22, TRIOXSALEN, reference compound]",90%,118%,–
"CC(C)=CCOc1c2occc2cc2ccc(=O)oc12 [Compound 6, IMPERATORIN]",91%,96%,–
"Cc1cc(=O)oc2cc(O)c(O)cc12 [Compound 24, 4-METHYLESCULETIN]",88%,100%,–
"COc1cc2ccc(=O)oc2cc1O [Compound 38, SCOPOLETIN]",77%,83%,–
"CC(C)(O)[C@@H]1Cc2cc3ccc(=O)oc3cc2O1 [Compound 31, MARMESIN]",89%,97%,–
DERRUSNIN [Compound 36],–,–,% of control melanin remaining after treatment @ 1 μM [1]: 81 % of control; % of control melanin remaining after treatment @ 5 μM [2]: 87 % of control
"COc1cc2c(cc1-c1cc3cc4ccoc4cc3oc1=O)OCO2 [Compound 7, PACHYRRHIZIN]",–,–,"activity at 1 µM (Melan-a, 72 h): 75%; activity at 5 µM (Melan-a, 72 h): 71%; ability to block melanin accumulation: robust dose dependent ability to block melanin accumulation"
"O=c1ccc2cc(O)c(O)cc2o1 [Compound 25, ESCULETIN]",87%,88%,–
"C/C=C(/C)C(=O)O[C@@H]1Cc2c(ccc3ccc(=O)oc23)OC1(C)C [Compound 28, SELINIDIN]",85%,82%,–
"COc1c(C(C)C)oc2cc3oc(=O)ccc3cc12 [Compound 34, PEUCEDANIN]",83%,84%,–
"COc1c2c(c(CC=C(C)C)c3oc(=O)c(-c4ccc(O)cc4)c(O)c13)OC(C)(C)C=C2 [Compound 35, LO[…]]",84%,81%,–
"Cc1cc(=O)oc2c(O)c(O)ccc12 [Compound 37, 4- METHYLDAPHNETIN]",83%,88%,–
"CO[C@@H]1[C@@H](OC(N)=O)[C@@H](O)[C@H](Oc2ccc3c(O)c(NC(=O)c4ccc(O)c(CC=C(C)C)c4)c(=O)oc3c2C)OC1(C)C [Compound 21, NOVOBIOCIN SODIUM, reference compound]",90%,94%,–
"COc1cc2ccc(=O)oc2c2ccoc12 [Compound 12, SPHONDIN]",89%,101%,–
"COc1cc(OC)c2ccc(=O)oc2c1 [Compound 23, CITROPTEN]",86%,97%,–
"O=c1ccc2cc(O[C@@H]3O[C@H](CO)[C@@H](O)[C@H](O)[C@H]3O)c(O)cc2o1 [Compound 26, AESCULIN]",70%,84%,–
"CC(=O)O[C@@H]1c2c(ccc3ccc(=O)oc23)OC(C)(C)[C@@H]1OC(=O)CC(C)C [Compound 30, DIHYDROSAMIDIN]",106%,88%,–

Compound,activity at 1 µM [1],activity at 5 µM [2],also measured
"COc1c2ccoc2c(OC)c2oc(=O)ccc12 [Compound 13, ISOPIMPINELLIN]",86%,95%,–
"COc1c(CC=C(C)C)c2c(c3oc(=O)c(-c4ccc(O)cc4)c(O)c13)C=CC(C)(C)O2 [Compound 16, SCANDENIN]",90%,64%,ability to block melanin accumulation: robust dose dependent ability to block melanin accumulation
"COc1ccc2c(C)cc(=O)oc2c1 [Compound 17, HYMECROMONE METHYL ETHER]",96%,93%,–
"C=C(C)[C@H]1COc2cc3oc(=O)ccc3cc2O1 [Compound 2, OBLIQUIN]",84%,95%,–
"COc1c(OC)c2occc2c2oc(=O)ccc12 [Compound 14, PIMPINELLIN]",76%,109%,–
"COc1c2ccoc2cc2oc(=O)ccc12 [Compound 18, BERGAPTENE]",100%,93%,–
FELAMIDIN [Compound 40],–,–,% of control melanin remaining after treatment @ 1 μM [1]: 97 % of control; % of control melanin remaining after treatment @ 5 μM [2]: 88 % of control
"CC1(C)Oc2ccc3ccc(=O)oc3c2CC1O (stereo not shown) [Compound 27, LOMATIN]",89%,85%,–
"CC(=O)OC(C)(C)[C@@H]1Cc2cc3ccc(=O)oc3cc2O1 [Compound 32, MARMESIN ACETATE]",77%,92%,–
"CC1(C)C=Cc2cc3ccc(=O)oc3cc2O1 [Compound 5, XANTHYLETIN]",99%,110%,–
"COc1c2occc2cc2ccc(=O)oc12 [Compound 20, METHOXSALEN, reference compound]",120%,125%,–
"COc1ccc(-c2c(OC)c3c(OC)c4c(cc3oc2=O)OC(C)(C)C=C4)cc1 [Compound 9, ROBUSTIC ACID METHYL ETHER]",69%,16%,ability to block melanin accumulation: robust dose dependent ability to block melanin accumulation
"COc1ccc(-c2c(O)c3c(OC)c4c(cc3oc2=O)OC(C)(C)C=C4)cc1 [Compound 10, ROBUSTIC ACID]",91%,93%,–
"CCOP(=S)(OCC)Oc1ccc2c(C)c(Cl)c(=O)oc2c1 [Compound 19, COUMOPHOS]",81%,48%,ability to block melanin accumulation: robust dose dependent ability to block melanin accumulation
"CC(C)C1COc2cc3oc(=O)ccc3cc2O1 (stereo not shown) [Compound 3, DIHYDRO-OBLIQUIN]",81%,81%,–
"COc1cc2ccc(=O)oc2c(OC)c1OC [Compound 4, FRAXIDIN METHYL ETHER]",87%,95%,–
"COc1cc2ccc(=O)oc2c(O)c1O [Compound 39, FRAXETIN]",84%,89%,–
"COc1ccc2ccc(=O)oc2c1 [Compound 8, HERNIARIN]",84%,81%,–
"COc1cc2occc2c2oc(=O)ccc12 [Compound 15, ISOBERGAPTENE]",86%,108%,–
